Laboratory results as given in PubChem BioAssay (NCI).
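Growth conditions: 96-well plates. Treatment: test compound, 48 hours, 5 concentrations. Analysis: linear interpolation between bracketing concentrations; unreached endpoints set to highest concentration. TGI marks complete inhibition of growth.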

What was measured:
Test in all cases: inhibition of tumour cell growth, NCI panel, 48 h
786-0 renal = test system: 786-0 renal
A498 renal = test system: A498 renal
A549 NSCLC = test system: A549 NSCLC
ACHN renal = test system: ACHN renal
BT-549 breast = test system: BT-549 breast
CAKI-1 renal = test system: CAKI-1 renal
CCRF-CEM leukemia = test system: CCRF-CEM leukemia
COLO 205 colon = test system: COLO 205 colon
DU-145 prostate = test system: DU-145 prostate
EKVX NSCLC = test system: EKVX NSCLC
HCC-2998 colon = test system: HCC-2998 colon
HCT-116 colon = test system: HCT-116 colon
HCT-15 colon = test system: HCT-15 colon
HL-60(TB) leukemia = test system: HL-60(TB) leukemia
HOP-62 NSCLC = test system: HOP-62 NSCLC
HOP-92 NSCLC = test system: HOP-92 NSCLC
HS 578T breast = test system: HS 578T breast
HT29 colon = test system: HT29 colon
IGROV1 ovarian = test system: IGROV1 ovarian
K-562 leukemia = test system: K-562 leukemia
KM12 colon = test system: KM12 colon
LOX IMVI melanoma = test system: LOX IMVI melanoma
M14 melanoma = test system: M14 melanoma
MALME-3M melanoma = test system: MALME-3M melanoma
MCF7 breast = test system: MCF7 breast
MDA-MB-231 breast = test system: MDA-MB-231 breast
MDA-MB-435 = test system: MDA-MB-435
MDA-N = test system: MDA-N
MOLT-4 leukemia = test system: MOLT-4 leukemia
NCI-H23 lung = test system: NCI-H23 lung
NCI-H460 lung = test system: NCI-H460 lung
NCI-H522 lung = test system: NCI-H522 lung
NCI/ADR-RES ovarian = test system: NCI/ADR-RES ovarian
OVCAR-3 ovarian = test system: OVCAR-3 ovarian
OVCAR-5 ovarian = test system: OVCAR-5 ovarian
OVCAR-8 ovarian = test system: OVCAR-8 ovarian
PC-3 prostate = test system: PC-3 prostate
RPMI-8226 leukemia = test system: RPMI-8226 leukemia
RXF 393 renal = test system: RXF 393 renal
SF-268 CNS = test system: SF-268 CNS
SF-295 CNS = test system: SF-295 CNS
SF-539 CNS = test system: SF-539 CNS
SK-MEL-28 melanoma = test system: SK-MEL-28 melanoma
SK-MEL-5 melanoma = test system: SK-MEL-5 melanoma
SK-OV-3 ovarian = test system: SK-OV-3 ovarian
SN12C renal = test system: SN12C renal
SNB-19 CNS = test system: SNB-19 CNS
SNB-75 CNS = test system: SNB-75 CNS
SR leukemia = test system: SR leukemia
SW-620 colon = test system: SW-620 colon
T-47D breast = test system: T-47D breast
TK-10 renal = test system: TK-10 renal
UACC-257 melanoma = test system: UACC-257 melanoma
UACC-62 melanoma = test system: UACC-62 melanoma
UO-31 renal = test system: UO-31 renal

## CCOC(=O)c1nc2ccc(C(F)(F)F)cc2nc1Nc1ccc(Cl)c(Cl)c1
786-0 renal
  TGI: > 100 µM
A498 renal
  TGI: > 100 µM
A549 NSCLC
  TGI: > 100 µM
ACHN renal
  TGI: > 100 µM
BT-549 breast
  TGI: > 100 µM
CAKI-1 renal
  TGI: > 100 µM
CCRF-CEM leukemia
  TGI: > 100 µM
COLO 205 colon
  TGI: > 100 µM
DU-145 prostate
  TGI: > 100 µM
EKVX NSCLC
  TGI: > 100 µM
HCC-2998 colon
  TGI: > 100 µM
HCT-116 colon
  TGI: > 100 µM
HCT-15 colon
  TGI: > 100 µM
HL-60(TB) leukemia
  TGI: > 100 µM
HOP-62 NSCLC
  TGI: > 100 µM
HOP-92 NSCLC
  TGI: > 100 µM
HS 578T breast
  TGI: > 100 µM
HT29 colon
  TGI: > 100 µM
IGROV1 ovarian
  TGI: > 100 µM
K-562 leukemia
  TGI: > 100 µM
KM12 colon
  TGI: > 100 µM
LOX IMVI melanoma
  TGI: > 100 µM
M14 melanoma
  TGI: > 100 µM
MALME-3M melanoma
  TGI: > 100 µM
MCF7 breast
  TGI: > 100 µM
MDA-MB-231 breast
  TGI: > 100 µM
MDA-MB-435
  TGI: > 100 µM
MDA-N
  TGI: > 100 µM
MOLT-4 leukemia
  TGI: > 100 µM
NCI-H23 lung
  TGI: > 100 µM
NCI-H460 lung
  TGI: > 100 µM
NCI-H522 lung
  TGI: > 100 µM
NCI/ADR-RES ovarian
  TGI: > 100 µM
OVCAR-3 ovarian
  TGI: > 100 µM
OVCAR-5 ovarian
  TGI: > 100 µM
OVCAR-8 ovarian
  TGI: > 100 µM
PC-3 prostate
  TGI: > 100 µM
RPMI-8226 leukemia
  TGI: > 100 µM
RXF 393 renal
  TGI: > 100 µM
SF-268 CNS
  TGI: > 100 µM
SF-295 CNS
  TGI: > 100 µM
SF-539 CNS
  TGI: > 100 µM
SK-MEL-28 melanoma
  TGI: > 100 µM
SK-MEL-5 melanoma
  TGI: > 100 µM
SK-OV-3 ovarian
  TGI: > 100 µM
SN12C renal
  TGI: > 100 µM
SNB-19 CNS
  TGI: 95.7 µM
SNB-75 CNS
  TGI: > 100 µM
SR leukemia
  TGI: > 100 µM
SW-620 colon
  TGI: > 100 µM
T-47D breast
  TGI: > 100 µM
TK-10 renal
  TGI: > 100 µM
UACC-257 melanoma
  TGI: > 100 µM
UACC-62 melanoma
  TGI: > 100 µM
UO-31 renal
  TGI: > 100 µM
